The results in this text go back to US20260285846A1, “REV-ERB AGONISTS FOR TH17-MEDIATED INFLAMMATORY DISORDERS” (UNIVERSITY OF FLORID RESEARCH FOUNDATION, iNCORPORATED, priority 2021, published 2026).

The structures appear in SMILES notation.

Sequence of REV-ERBα LBD (P20393 with tags, fused parts or gaps DEL324-422): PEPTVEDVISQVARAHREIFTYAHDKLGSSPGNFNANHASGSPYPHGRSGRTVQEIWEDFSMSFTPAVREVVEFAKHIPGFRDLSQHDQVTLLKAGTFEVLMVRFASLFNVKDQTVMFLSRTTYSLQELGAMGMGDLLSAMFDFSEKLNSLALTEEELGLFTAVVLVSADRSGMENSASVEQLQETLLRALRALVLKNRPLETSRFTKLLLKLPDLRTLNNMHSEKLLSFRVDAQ
Sequence of REV-ERBα LBD (Q9Y618 2335-2356 partner limits assumed): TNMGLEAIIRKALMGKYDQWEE

This assay deals with REV-ERBα LBD (Homo sapiens, UniProt P20393, DEL324-422). Nature of the assay: biochemical. The following applies: FRET assay; 6xHistag-REV-ERBα LBD with FITC-labeled SMRT corepressor peptide; read-out: REVERBα (Agonism of REV-ERBα, EC50). The method, boiled down:
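Serially diluted ligands were incubated 2 h at 4° C, in triplicate, with E. coli-expressed His-REV-ERBα LBD (281-614 Δ324-422 or 381-579; 4 nM), Tb-anti-His (1 nM) and FITC-labelled SMRT peptide (400 nM). EC50 came from sigmoidal fits of the 520/495 nm TR-FRET ratio.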
As for `N#Cc1nccc(C(F)(F)F)c1-c1nc2c(cc1F)c([C@H](NS(=O)(=O)C1CC1)C(F)F)cn2C1CCC1` [Compound 160, N-((1S)-1-(6-(2-cyano-4-(trifluoromethyl)pyridin-3-yl)-1-cyclobutyl-5-fluoro-1H-pyrrolo[2,3-b]pyridin-3-yl)-2,2-difluoroethyl)cyclopropanesulfonamide], the concentration giving a half-maximal response (EC50) (as a rule, the midpoint of the concentration-response curve) is less than 100 nM.
For `N#Cc1nccc(C(F)F)c1-c1cc2c(cc1F)c([C@H](NS(=O)(=O)C1CC1)C(F)F)cn2C1CCC1` [Compound 161, N-((1S)-1-(6-(2-cyano-4-(difluoromethyl)pyridin-3-yl)-1-cyclobutyl-5-fluoro-1H-indol-3-yl)-2,2-difluoroethyl)cyclopropanesulfonamide] the value was less than 100 nM; for `N#Cc1nccc(C(F)F)c1-c1nc2c(cc1F)c([C@H](NS(=O)(=O)C1CC1)C(F)F)cn2C1CCC1` [Compound 162, N-((1S)-1-(6-(2-cyano-4-(difluoromethyl)pyridin-3-yl)-1-cyclobutyl-5-fluoro-1H-pyrrolo[2,3-b]pyridin-3-yl)-2,2-difluoroethyl)cyclopropanesulfonamide], less than 100 nM; for `[2H]C1([2H])CC(S(=O)(=O)N[C@@H](c2cn(CC(C)(C)C)c3cc(-c4ccccc4C(F)(F)F)ccc23)C(F)F)C1` [Compound 163, (S)—N-(2,2-difluoro-1-(1-neopentyl-6-(2-(trifluoromethyl)phenyl)-1H-indol-3-yl)ethyl)cyclobutane-1-sulfonamide-3,3-d2], less than 100 nM.
Under `CC(C)(C)Cn1cc([C@H](NS(=O)(=O)C2CC2)C(F)F)c2cc(F)c(-c3ccc(F)cc3C(F)(F)F)cc21` [Compound 164, (S)—N-(2,2-difluoro-1-(5-fluoro-6-(4-fluoro-2-(trifluoromethyl)phenyl)-1-neopentyl-1H-indol-3-yl)ethyl)cyclopropanesulfonamide] stands less than 100 nM.
With `O=S(=O)(N[C@@H](c1cn(C2CCC2)c2nc(-c3cc(Cl)cnc3C(F)(F)F)c(F)cc12)C(F)F)C1CC1` [Compound 165, (S)—N-(1-(6-(5-chloro-2-(trifluoromethyl)pyridin-3-yl)-1-cyclobutyl-5-fluoro-1H-pyrrolo[2,3-b]pyridin-3-yl)-2,2-difluoroethyl)cyclopropanesulfonamide], the EC50 is less than 100 nM.
Take `CC(C)(C)Cn1cc([C@H](NS(=O)(=O)C2CC2)C(F)F)c2ccc(-c3ccc(=O)[nH]c3C(F)(F)F)cc21` [Compound 166, (S)—N-(2,2-difluoro-1-(1-neopentyl-6-(6-oxo-2-(trifluoromethyl)-1,6-dihydropyridin-3-yl)-1H-indol-3-yl)ethyl)cyclopropanesulfonamide]: the EC50 was less than 100 nM.
Under `CC(C)(C)Cn1cc([C@H](NS(=O)(=O)C2CC2)C(F)F)c2ccc(-c3ccc(N)nc3C(F)(F)F)cc21` [Compound 167, (S)—N-(1-(6-(6-amino-2-(trifluoromethyl)pyridin-3-yl)-1-neopentyl-1H-indol-3-yl)-2,2-difluoroethyl)cyclopropanesulfonamide] stands less than 100 nM.
Under `CN1CC(n2cc([C@H](NS(=O)(=O)C3CC3)C(F)F)c3cc(F)c(-c4ccc(F)cc4C(F)(F)F)cc32)C1` [Compound 168, (S)—N-(2,2-difluoro-1-(5-fluoro-6-(4-fluoro-2-(trifluoromethyl)phenyl)-1-(1-methylazetidin-3-yl)-1H-indol-3-yl)ethyl)cyclopropanesulfonamide] stands 100 to 1000 nM; under `CC(C)(C)Cn1cc([C@H](NS(=O)(=O)C2CC2)C(F)F)c2cc(F)c(-c3ccc(=O)[nH]c3C(F)(F)F)cc21` [Compound 169, (S)—N-(2,2-difluoro-1-(5-fluoro-1-neopentyl-6-(6-oxo-2-(trifluoromethyl)-1,6-dihydropyridin-3-yl)-1H-indol-3-yl)ethyl)cyclopropanesulfonamide], less than 100 nM.
In the case of `CC(C)(C)Cn1cc([C@H](NS(=O)(=O)C2CCC2)C(F)F)c2cc(F)c(-c3ccc(F)cc3C(F)(F)F)cc21` [Compound 170, (S)—N-(2,2-difluoro-1-(5-fluoro-6-(4-fluoro-2-(trifluoromethyl)phenyl)-1-neopentyl-1H-indol-3-yl)ethyl)cyclobutanesulfonamide], the EC50 is less than 100 nM.
Under `CC(C)(C)Cn1cc([C@H](NS(=O)(=O)C2CC2)C(F)(F)F)c2cc(F)c(-c3cccnc3C(F)(F)F)cc21` [Compound 171, (S)—N-(2,2,2-trifluoro-1-(5-fluoro-1-neopentyl-6-(2-(trifluoromethyl)pyridin-3-yl)-1H-indol-3-yl)ethyl)cyclopropanesulfonamide] stands less than 100 nM.
Turning to `CC(C)(C)Cn1cc([C@H](NS(=O)(=O)C2CC2)C(F)F)c2cc(F)c(C3CCOCC3)cc21` [Compound 172, (S)—N-(2,2-difluoro-1-(5-fluoro-1-neopentyl-6-(tetrahydro-2H-pyran-4-yl)-1H-indol-3-yl)ethyl)cyclopropanesulfonamide], the EC50 is less than 100 nM.
Under `CC(C)(C)Cn1cc([C@H](NS(=O)(=O)C2CC2)C(F)F)c2ccc(C3CCOCC3)cc21` [Compound 174, (S)—N-(2,2-difluoro-1-(1-neopentyl-6-(tetrahydro-2H-pyran-4-yl)-1H-indol-3-yl)ethyl)cyclopropanesulfonamide] stands less than 100 nM; under `O=c1ccc(-c2nc3c(cc2F)c([C@H](NS(=O)(=O)C2CC2)C(F)F)cn3C2CCC2)c(C(F)(F)F)[nH]1` [Compound 175, (S)—N-(1-(1-cyclobutyl-5-fluoro-6-(6-oxo-2-(trifluoromethyl)-1,6-dihydropyridin-3-yl)-1H-pyrrolo[2,3-b]pyridin-3-yl)-2,2-difluoroethyl)cyclopropanesulfonamide], less than 100 nM; under `O=S(=O)(N[C@@H](c1cn(C2COC2)c2cc(-c3ccc(F)cc3C(F)(F)F)c(F)cc12)C(F)F)C1CC1` [Compound 176, (S)—N-(2,2-difluoro-1-(5-fluoro-6-(4-fluoro-2-(trifluoromethyl)phenyl)-1-(oxetan-3-yl)-1H-indol-3-yl)ethyl)cyclopropanesulfonamide], 100 to 1000 nM.
`O=S(=O)(N[C@@H](c1cn(C2COC2)c2nc(-c3ccc(F)cc3C(F)(F)F)c(F)cc12)C(F)F)C1CC1` [Compound 177, (S)—N-(2,2-difluoro-1-(5-fluoro-6-(4-fluoro-2-(trifluoromethyl)phenyl)-1-(oxetan-3-yl)-1H-pyrrolo[2,3-b]pyridin-3-yl)ethyl)cyclopropanesulfonamide]: the EC50 was in the range of 100 to 1000 nM.
Regarding `N#CC1CC(n2cc([C@H](NS(=O)(=O)C3CC3)C(F)F)c3cc(F)c(-c4ccc(F)cc4C(F)(F)F)cc32)C1` (stereo partly drawn) [Compound 179, (S)—N-(1-(1-(3-cyanocyclobutyl)-5-fluoro-6-(4-fluoro-2-(trifluoromethyl)phenyl)-1H-indol-3-yl)-2,2-difluoroethyl)cyclopropanesulfonamide], the EC50 is less than 100 nM.
As for `Nc1ccc(-c2nc3c(cc2F)c([C@H](NS(=O)(=O)C2CC2)C(F)F)cn3C2CCC2)c(C(F)(F)F)n1` [Compound 180, (S)—N-(1-(6-(6-amino-2-(trifluoromethyl)pyridin-3-yl)-1-cyclobutyl-5-fluoro-1H-pyrrolo[2,3-b]pyridin-3-yl)-2,2-difluoroethyl)cyclopropanesulfonamide], the EC50 was less than 100 nM.
Under `O=S(=O)(N[C@@H](c1cn(C2CC(F)C2)c2cc(-c3ccc(F)cc3C(F)(F)F)c(F)cc12)C(F)F)C1CC1` (stereo partly drawn) [Compound 181, (S)—N-(2,2-difluoro-1-(5-fluoro-6-(4-fluoro-2-(trifluoromethyl)phenyl)-1-(3-fluorocyclobutyl)-1H-indol-3-yl)ethyl)cyclopropanesulfonamide] stands less than 100 nM.
Under `O=S(=O)(N[C@@H](c1cn(C2CC(F)C2)c2cc(-c3cc(F)cnc3C(F)(F)F)c(F)cc12)C(F)F)C1CC1` (stereo partly drawn) [Compound 182, (S)—N-(2,2-difluoro-1-(5-fluoro-6-(5-fluoro-2-(trifluoromethyl)pyridin-3-yl)-1-(3-fluorocyclobutyl)-1H-indol-3-yl)ethyl)cyclopropanesulfonamide] stands less than 100 nM.
